Results taken from patent US20120322060A1, “DIAGNOSIS AND MONITORING TREATMENT OF PSYCHIATRIC DISEASES WITH SPADIN AND RELATED METHODS” (CENTRE NATIONAL DE LE RECHERCHE SCIENTIFIQUE - CNRS -, priority 2011, published 2012).
No end group written: not given here.

How the values were obtained:
TREK-1 [1] = biological target: T1, TREK-1 (Mus musculus, UniProt P97438); test: Whole-cell patch-clamp on TREK-1 transfected COS-7 cells; format: cell-based; design: GFP; expressed in transfected cells; host or cells: COS-7 (DEAE-dextran transfection); settings: after 90 sec of application
T1 sequence (P97438 1-426): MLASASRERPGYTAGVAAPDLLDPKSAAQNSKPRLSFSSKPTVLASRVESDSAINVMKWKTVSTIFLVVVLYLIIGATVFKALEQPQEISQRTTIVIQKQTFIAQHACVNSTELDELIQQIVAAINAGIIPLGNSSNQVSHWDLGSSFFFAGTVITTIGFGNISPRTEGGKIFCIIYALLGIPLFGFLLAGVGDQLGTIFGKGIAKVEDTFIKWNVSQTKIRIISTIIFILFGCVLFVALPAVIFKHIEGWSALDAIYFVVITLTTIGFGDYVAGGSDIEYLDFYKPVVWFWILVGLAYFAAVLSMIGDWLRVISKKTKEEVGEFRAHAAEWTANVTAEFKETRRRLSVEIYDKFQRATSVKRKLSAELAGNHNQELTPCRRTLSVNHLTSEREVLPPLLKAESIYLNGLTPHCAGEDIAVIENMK
Protocol: All electrophysiological experiments were done on COS-7 cells seeded at a density of 20,000 cells/35-mm dish 24 h before transfection. Cells were transfected by the classical DEAE-dextran method with TREK-1-GFP plasmids (0.1 μg/μL). Cells were visualized 48-72 h after transfection using fluorescence.
The whole-cell patch-clamp technique was used to evaluate TREK-1 potassium channel current by using a RK 400 patch-clamp amplifier (Axon Instruments, U.S.A.), as previously described. Currents were lowpass filtered at 3 kHz, digitized at 10 kHz using a 12-bit analog-to-digital converter. […] The bath solution contained (in mM): 150 NaCl, 5 KCl, 3 MgCl2, 1 CaCl2, and 10 HEPES, adjusted to pH 7.4 with NaOH; the patch pipette solution contained (in mM): 155 KCl, 3 MgCl2, 5 EGTA, and 10 HEPES, adjusted to pH 7.2 with KOH. Cells were clamped at −80 mV and voltage changes were either applied by ramp (from −100 to 50 mV, 1 s in duration) or by step (from −100 to 40 mV, 1.5 s in duration). Cells were continuously superfused with a microperfusion system. The pipette capacitance was not subtracted from total membrane capacitance and there was no leak substraction. All experiments were done at room temperature (21° C. to 22° C.) and in the presence of a cocktail of potassium channel inhibitors (K^+ blockers: 10 mM tetraethyl ammonium (TEA), 3 mM 4-aminopyridine (4-AP), 50 nM charybdotoxin, 10 μM glibenclamide, 100 nM apamin).
Pclamp software was used to analyze currents recorded in the whole-cell mode measured at 0 mV. Results are expressed as means±SD. To obtain the IC50 value for dose-dependent inhibition, experimental data were fitted with a standard sigmoidal function.

mice [2] = test: Staircase test; format: in vivo, mouse; settings: spadin i.p. 10^-5 M, diazepam i.p. 0.5 mg/kg
Protocol: The apparatus comprised an enclosed staircase consisted of five identical steps (2.5 cm in height×11 cm in width×7.5 cm in length), each made of black plastic. The height of the walls was constant (12.5 cm above the stairs) along the entire length of the staircase. Each mouse was placed individually on the floor of the staircase with its back to the staircase. A step was considered climbed only if the mouse placed all four paws on it. Rearing was recorded when the mouse rose on its hind legs either on the step or against the wall. The number of steps ascended and the number of rearings made in a 3-min period were recorded. Results were expressed as ratio of rearing/step numbers.

TREK-1 [3] = biological target: T1, TREK-1; test: Association kinetics / internalization of 125I-spadin on COS-7 cells expressing TREK-1; format: cell-based; design: expressed in transfected cells; host or cells: COS-7 (DEAE-dextran transfection); settings: 37° C.
Protocol: Cells, grown on 12 mm multiwell-dishes, were incubated with 0.2 nM ^125I-spadin for various times at 37° C. in an Earle's Tris-Hepes buffer (cell binding buffer). Incubations were terminated by washing cells twice with the binding buffer or with the same buffer containing 0.5 M NaCl, pH 4, for 2 min to remove non sequestrated radioactivity (acid-NaCl wash). Cells were harvested with 1 ml of 0.1 N NaOH and counted in a gamma-counter. Non specific binding was determined in the presence of 10 μM unlabeled spadin.

mice [4] = test: Elevated plus-maze; format: in vivo, mouse; settings: spadin i.p. 10^-5 M, diazepam i.p. 0.5 mg/kg
Text: Elevated plus-maze. The apparatus consisted of two open and two enclosed arms of the same size (45×5 cm) with walls 15 cm high. The arms, constructed of black acrylic, radiate from a common central platform (5×5 cm) to form a plus sign. Open arms were arranged opposite to one another, as were closed arms. The maze was elevated to a height of 45 cm above floor level. Each mouse was placed in the central platform facing one of the open arms. The number of entries into the open and closed arms and the time spent on the open and closed arms were recorded during a 5 min test period. Time spent in the unprotected open arms as well as the number of entries in open arms in relation to the total of arm entries are used as experimental indices of anxiety.

mice [5] = test: Light/dark exploration; format: in vivo, mouse; settings: spadin i.p. 10^-5 M, diazepam i.p. 0.5 mg/kg
Protocol: The apparatus consisted of a cage (25×40×20 cm) divided into two compartments by a black partition containing a small opening that allows mouse to move from one compartment to the other. One compartment, comprising […] of the surface area, was made of white plastic and was brightly illuminated. The adjoining smaller compartment was black and dark. Mice were placed in the white compartment and allowed to move freely between the two chambers for 5 minutes. The number of transitions between the two compartments, time spent in the white chamber, and latency to the first transition were recorded. Mice tend to avoid the white compartment. Thus the measures of exploration in this area (time and entrances) were used as experimental indices of anxiety.

[6] = test system: C13NJ microglial cell line; test: C13NJ wound-healing assay (NT-induced cell migration); format: cell-based; settings: 10 nM NT in the presence of 1 μM spadin
Protocol: A cell-free zone was created within a semi-confluent monolayer with a pipette tip. We analyzed by time-lapse microscopy how cells repopulated the cell-free zone. The 100% of migrating cells was calculated by stimulation of cell migration with 10% of Fetal Calf Serum (FCS).
A cell-free zone was created within a semi-confluent monolayer of microglial culture by scratching cells off with a pipette tip.

Sequence: APLPRWSGPIGVSWGLR [spadin]
- inhibition of current increase induced by 10 μM aa (TREK-1 [1]): inhibited the aa-induced increase
- rearing/step numbers ratio (mice [2]): had no effect
- time for cell-associated radioactivity to reach a plateau (TREK-1 [3]): ≤ 30 min
- time spent in the open arms (mice [4]): had no effect
- number of light/dark transitions (mice [5]): did not make more transitions
- migrating cells, % of number migrating with 10% FCS [6]: 6.2±1.3%
